Legend:
Assay type in all cases: cell-based
[1] = system: Pseudomonas aeruginosa ATCC 9027; test: Preservation efficacy test in sterile distilled water, drop plate; conditions: 7 days
Description: In the following example, the following test organisms were used: • Pseudomonas aeruginosa ATCC 9027 • Aspergillus brasiliensis ATCC 16404 [table] Bacteria were harvested and prepared in diluent (sterile distilled water) to obtain a final concentration of 1.0×10^6 to 5.0×10^6 cfu/ml. [table] […] Each sample was inoculated at t=0 with a known concentration of micro-organism. Each inoculated sample was then mixed until a homogenous mixture was obtained. […] The solution was left for 15 minutes. Subsequent dilutions were prepared by serial dilution of 0.1 ml into 0.9 ml of neutralising broth. Bacteria were serially diluted to 10^−4, Fungi were serially diluted to 10^−3. Each serial dilution was thoroughly mixed and 25 μl drops were aliquoted onto the surface of pre-prepared agar plates. Plates were prepared in sextupicate for each sample dilution. The agar plates were allowed to dry, then inverted and incubated under conditions appropriate for the test microorganisms. CFU/ml was calculated taking into account dilution factors. […] The lower and upper limits for drop plating were only employed on the highest and lowest dilution factor plates.

[2] = system: Escherichia coli; test: MIC and Synergy Index (Kull) of two-component compositions
Description: (§1) A wide range of concentrations were tested against Pseudomonas aeruginosa, Staphylococcus aureus, Escherichia coli, and Candda albicans.
(§2) The lowest concentration of each mixture or single compound which prevents an observable level of growth was determined to be the minimum inhibitory concentration (MIC) value.
(§3) Serial dilutions of each mixture or single compound were prepared. Micro-organisms were inoculated into media: Nutrient Broth (bacteria) or Malt Extract Broth (yeast). The final concentrations of micro-organisms in media was approximately 10^5-6 CFU/ml. The inoculated media was introduced to each of the serial dilutions at a 1:1 ratio, and incubated at 30±1° C. for 24-48 hours.
(§4) The MICs for each mixture was compared with the MIC of each single compound alone.
(§5) Synergy was determined using the Kull equation (F. C. Kull et. al., “Mixtures of Quaternary Ammonium Compounds and Long-chain Fatty Acids as Antifungal Agents”, Appl Microbiol. 1961 November; 9(6): 538-541), which calculates a Synergy Index (SI) according the following equation:
(§6) [formula] • wherein • QA=concentration of compound A in ppm, acting alone produced an end point, • Qa=concentration of compound A in ppm, in the mixture, which produced an end point, • QB=concentration of compound B in ppm, acting alone produced an end point, and • Qb=concentration of compound B in ppm, in the mixture, which produced an end point;
(§7) In this study the end point is measured by the MIC.

[3] = system: Staphylococcus aureus; test: as above; conditions: Staphylococcus aureus, butyl levulinate alone, or its concentration in the mixture with Sodium benzoate; read-out: MIC (ppm) to inhibit growth: Butyl levulinate
Description: as §1, §2, §3, §4, §5, §6, §7

[4] = system: Pseudomonas aeruginosa; test: as above
Description: as §1, §2, §3, §4, §5, §6, §7

[5] = system: Aspergillus brasiliensis ATCC 16404; test: Preservation efficacy test in sterile distilled water, drop plate; conditions: 7 days
Description: In the following example, the following test organisms were used: • Pseudomonas aeruginosa ATCC 9027 • Aspergillus brasiliensis ATCC 16404 [table] Mould strain spores were harvested (sterile distilled water+0.05% polysorbate 80) and treated to remove fungal hyphae. Mould strain spores were prepared in diluent (sterile distilled water) to obtain a final concentration of […]. [table] […] Each sample was inoculated at t=0 with a known concentration of micro-organism. Each inoculated sample was then mixed until a homogenous mixture was obtained. […] The solution was left for 15 minutes. Subsequent dilutions were prepared by serial dilution of 0.1 ml into 0.9 ml of neutralising broth. Bacteria were serially diluted to 10^−4, Fungi were serially diluted to 10^−3. Each serial dilution was thoroughly mixed and 25 μl drops were aliquoted onto the surface of pre-prepared agar plates. Plates were prepared in sextupicate for each sample dilution. The agar plates were allowed to dry, then inverted and incubated under conditions appropriate for the test microorganisms. CFU/ml was calculated taking into account dilution factors. […] The lower and upper limits for drop plating were only employed on the highest and lowest dilution factor plates.

[6] = pH 7, Butyl Levulinate 500 ppm, Potassium Sorbate 0 ppm
[7] = pH 7, Butyl Levulinate 1000 ppm, Potassium Sorbate 0 ppm
[8] = pH 7, Butyl Levulinate 1500 ppm, Potassium Sorbate 0 ppm
[9] = pH 7, Butyl Levulinate 1500 ppm, Sodium Benzoate 0 ppm
[10] = pH 7, Butyl Levulinate 2000 ppm, Potassium Sorbate 0 ppm
[11] = pH 7, Butyl Levulinate 2000 ppm, Sodium Benzoate 0 ppm
[12] = pH 7, Butyl Levulinate 2500 ppm, Potassium Sorbate 0 ppm
[13] = pH 7, Butyl Levulinate 2500 ppm, Sodium Benzoate 0 ppm
[14] = pH 8, Butyl Levulinate 500 ppm, Sodium Benzoate 0 ppm
[15] = pH 8, Butyl Levulinate 1000 ppm, Sodium Benzoate 0 ppm
[16] = pH 8, Butyl Levulinate 1500 ppm, Sodium Benzoate 0 ppm
[17] = pH 8, Butyl Levulinate 2000 ppm, Sodium Benzoate 0 ppm
[18] = pH 8, Butyl Levulinate 2500 ppm, Sodium Benzoate 0 ppm

CCCCOC(=O)CCC(C)=O [Butyl Levulinate, butyl levulinate]
Log reduction [1, 6]: <0.03 | Log reduction [1, 7]: <0.03 | Log reduction [1, 8]: <0.03 | Log reduction [1, 9]: <0.38 | Log reduction [1, 10]: <0.03 | Log reduction [1, 11]: <0.38 | Log reduction [1, 12]: <0.03 | Log reduction [1, 13]: <0.38 | Log reduction ([1]; pH 8, Butyl Levulinate 500 ppm, Potassium Sorbate 0 ppm): <0.33 | Log reduction [1, 14]: <0.05 | Log reduction ([1]; pH 8, Butyl Levulinate 1000 ppm, Potassium Sorbate 0 ppm): <0.33 | Log reduction [1, 15]: <0.05 | Log reduction ([1]; pH 8, Butyl Levulinate 1500 ppm, Potassium Sorbate 0 ppm): <0.33 | Log reduction [1, 16]: <0.05 | Log reduction ([1]; pH 8, Butyl Levulinate 2000 ppm, Potassium Sorbate 0 ppm): <0.33 | Log reduction [1, 17]: <0.05 | Log reduction ([1]; pH 8, Butyl Levulinate 2500 ppm, Potassium Sorbate 0 ppm): <0.33 | Log reduction [1, 18]: <0.05 | MIC ([2]; Escherichia coli, butyl levulinate alone, or its concentration in the mixture with Sodium benzoate, read-out: MIC (ppm) to inhibit growth: Butyl levulinate): 3120 µg/mL | MIC (ppm) to inhibit growth: Butyl levulinate ([2]; butyl levulinate alone, or its concentration in the mixture with DHA): 3125 ppm | MIC [3]: 25000 µg/mL | MIC ([4]; Pseudomonas aeruginosa, butyl levulinate alone, or its concentration in the mixture with Lactic Acid, read-out: MIC (ppm) to inhibit growth: Butyl levulinate): 6250 µg/mL | MIC (ppm) to inhibit growth: Butyl levulinate ([4]; butyl levulinate alone, or its concentration in the mixture with MGDA): 6250 ppm | MIC (ppm) to inhibit growth: Butyl levulinate ([4]; butyl levulinate alone, or its concentration in the mixture with Sodium pyrithione): 6250 ppm | Log reduction ([5]; pH 7, Butyl Levulinate 500 ppm, IPBC 0 ppm): 0.61 | Log reduction [5, 6]: 0.10 | Log reduction ([5]; pH 7, Butyl Levulinate 500 ppm, Sodium Benzoate 0 ppm): 1.90 | Log reduction ([5]; pH 7, Butyl Levulinate 1000 ppm, IPBC 0 ppm): 0.60 | Log reduction [5, 7]: 0.10 | Log reduction ([5]; pH 7, Butyl Levulinate 1000 ppm, Sodium Benzoate 0 ppm): 1.82 | Log reduction ([5]; pH 7, Butyl Levulinate 1500 ppm, IPBC 0 ppm): 0.74 | Log reduction [5, 8]: 0.31 | Log reduction [5, 9]: 1.85 | Log reduction ([5]; pH 7, Butyl Levulinate 2000 ppm, IPBC 0 ppm): 0.70 | Log reduction [5, 10]: −0.01 | Log reduction [5, 11]: 2.01 | Log reduction ([5]; pH 7, Butyl Levulinate 2500 ppm, IPBC 0 ppm): 0.72 | Log reduction [5, 12]: 0.18 | Log reduction [5, 13]: 1.80 | Log reduction [5, 14]: 0.64 | Log reduction [5, 15]: 0.36 | Log reduction [5, 16]: 0.36 | Log reduction [5, 17]: 0.38 | Log reduction [5, 18]: 0.33
